According to patent publication US20180312651A1, “FOAMS AND ARTICLES MADE FROM FOAMS CONTAINING HCFO OR HFO BLOWING AGENTS” (HONEYWELL INTERNATIONAL INC., priority 2011, published 2018):
Structures can show the parent of a compound that is named as a salt. Where two headings read alike, the source gives them in different places.

Assays:
[1] = manufacturers' literature; cited from earlier work
[2] = cited from earlier work
PEL = conditions: Honeywell internal PEL
Excerpt: Table 1 and Table 2, below, list the properties of 1233zd(E) and 1234ze(E) compared to other commonly used blowing agents.
Table 3A and Table 3B list the properties of 1233zd(E) compared to some non-flammable blowing agents, such as 245fa and 141b, and various flammable blowing agents, such as methyl formate and hydrocarbons. […] Note that the global warming potential (GWP) of 1233zd(E) of less than 5 is the lowest among all blowing agents compared. Moreover, the GWP of 1233zd(E) is more than two orders of magnitude lower than that of the currently utilized 245fa, and is more than one order of magnitude lower than the present limitations in the EU F-Gas Regulation.

| SMILES | PEL [1] [ppm] | LFL/UFL (Vol % in Air) [2] | PEL (PEL) |
| --- | --- | --- | --- |
| CC(F)(Cl)Cl [141b, 1,1-dichloro-1-fluoroethane] | 500 | 7.6-17.7 Vol % | – |
| CC(F)(F)Cl [142b, 1-chloro 1,1-difluoroethane] | 1000 | 8.0-15.4 Vol % | – |
| FC(F)CC(F)(F)F [245fa, 1,1,1,3,3-pentafluoropropane] | 300 | None | – |
| CC(F)(F)CC(F)(F)F [365mfc, 1,1,1,3,3-pentafluorobutane] | 1000 | 3.6-13.3 Vol % | – |
| FC(F)(F)/C=C/Cl [1233zd(E), trans-1-chloro-3,3,3-trifluoropropene] | 300 | None | 300^5 |
| F/C=C/C(F)(F)F [1234ze(E), trans-1,3,3,3-tetrafluoropropene] | 1000 | None | – |
| C1CCCC1 [C-C5, cyclopentane] | – | 1.5-8.7 Vol % | – |
| COC=O [Methyl Formate, methyl formate] | 600 | 5.0-23.0 Vol % | – |
| FC(Cl)Cl [compound 22, dichlorofluoromethane] | 1000 | None | – |
| CCC(C)C [isopentane] | 600 | 1.4-8.3 Vol % | – |
| CCCCC [normal pentane, n-pentane] | 600 | 1.4-8.3 Vol % | – |
